Results on one compound are retold here after US10328079B2, “[6R]-MTHF multiple bolus administration in 5-fluorouracil based chemotherapy” (Isofol Medical AB, priority 2017, dated 2019).

Several values for one entry are separate records, joined by “and”; a condition that tells them apart may be missing. Equal entries are not always repeated. Entries after “also recorded” stand apart in the source; their conditions may differ.

Series [1] is described as follows: ISO-CC-005 Phase I/II trial: safety / adverse events. The format is in vivo, human. The source says: A maximum of 63 Stage IV CRC patients eligible for 1st, 2nd or 3rd line treatment are planned to be enrolled in this study disposed as follows: three to six patients in each dose cohort, and three additional patients in one dose cohort in each treatment arm according to the following study design (Table 1). ISO-CC-005 is an open clinical phase I/II tolerability and dose definition study designed to evaluate safety and define the [6R]-MTHF dose for continued development. It evaluates four doses of [6R]-MTHF in combination with 5-FU with or without the different combinations of irinotecan or oxaliplatin and bevacizumab in patients with metastatic Colorectal Cancer using 4 different protocols: • MOD+5-FU: [6R]-MTHF in combination with 5-FU only, similar to Nordic FLV protocol • MOD+[…] in combination with 5-FU and Irinotecan, similar to Nordic FLIRI protocol • MOD+FLOX: [6R]-MTHF in combination with 5-FU and Oxaliplatin, similar to Nordic FLOX protocol • MOFOX: [6R]-MTHF in combination with 5-FU and Oxaliplatin, similar to FOLFOX-6 protocol By September 2017 the gastrointestinal (GI) adverse effects (AEs) for in total 37 patients had been analyzed. Of the 37 patients, only 2 (two) patients (5.4%) reported a GI adverse event (defined as nausea, vomiting and/or dehydration) of grade 3 or greater.

For series [2], the system named is stage IV colorectal cancer. Kind of series: ISO-CC-005 Phase I/II trial: tumor response according to RECIST 1.1. It counts as in vivo, human. Conditions: for ORR (objective response rate): after 8 weeks' treatment, with 5-FU. From the text:
As used herein, the term ORR shall refer to the Objective Response Rate, i.e. the proportion of patients with reduction in tumor burden of a predefined amount.
Complete Response (CR): • Disappearance of all target lesions. Any pathological lymph nodes (whether target or non-target) must have reduction in short axis to <10 mm.
(Note: the appearance of one or more new lesions is also considered progression).
Stable Disease (SD): • Neither sufficient shrinkage to qualify for PR nor sufficient increase to qualify for PD, taking as reference the smallest sum diameters while on study. (Eisenhauer E A, Therasse P, Bogaerts J, Schwartz L H, Sargent D, Ford R, et al. New response evaluation criteria in solid tumors: revised RECIST guideline (version 1.1). Eur J Cancer. 2009 January; 45(2):228-47)
The safety and efficacy of [6R]-5,10-methylenetetrahydrofolate ([6R]-MTHF) is analyzed in an open-label, multiple-site, Phase I/II Dose Cohort Trial (ISO-CC-005) in combination with a fixed dose of 5-Fluorouracil (5-FU) alone or together with a fixed dose of Bevacizumab, Oxaliplatin or Irinotecan in patients with stage IV colorectal cancer. A maximum of 63 Stage IV CRC patients eligible for 1st, 2nd or 3rd line treatment are planned to be enrolled in this study disposed as follows: three to six patients in each dose cohort, and three additional patients in one dose cohort in each treatment arm according to the following study design (Table 1).
[6R]-5,10-Methylenetetrahydrofolic acid ([6R]-MTHF) is formulated as a lyophylised powder containing 100 mg per vial (calculated as free acid). Dosing: Rapid i.v. bolus injections at a fixed dose of 30, 60, 120 or 240 mg/m^2, will be administered approximately 30 minutes after administration of 5-FU on Day 1 and Day 2 in each treatment cycle in all dose cohorts of the study (i.e. regardless of treatment arm). The regimen will be repeated every second week for up to eight (8) cycles, i.e. up to sixteen (16) weeks.
5-FU (5-fluorouracil) is formulated as injection solution. Dosing: 5-FU will be administered as i.v. bolus injections on Day 1 and Day 2 in each treatment cycle. In Arm #2 and Arm #3 of the study, 5-FU will be administered approximately 60 minutes after start of Oxaliplatin or Irinotecan administration, respectively (see description below). The treatment will be repeated every second week for up to eight (8) cycles, i.e. up to sixteen (16) weeks.
ISO-CC-005 is an open clinical phase I/II tolerability and dose definition study designed to evaluate safety and define the [6R]-MTHF dose for continued development. It evaluates four doses of [6R]-MTHF in combination with 5-FU with or without the different combinations of irinotecan or oxaliplatin and bevacizumab in patients with metastatic Colorectal Cancer using 4 different protocols: • MOD+5-FU: [6R]-MTHF in combination with 5-FU only, similar to Nordic FLV protocol • MOD+FLIRI: [6R]-MTHF in combination with 5-FU and Irinotecan, similar to Nordic FLIRI protocol • MOD+FLOX: [6R]-MTHF in combination with 5-FU and Oxaliplatin, similar to Nordic FLOX protocol • MOFOX: [6R]-MTHF in combination with 5-FU and Oxaliplatin, similar to FOLFOX-6 protocol
In one of the treatment protocols (MOFOX) the total dose of [6R]-MTHF was divided into two i.v. bolus injections dispensed approximately 30 and 60 minutes after the initial administration of 5-FU bolus injection (at 0 minute), respectively.
3 patients in total had at this point been treated according to the MOFOX protocol.
By December 2017 the first-line patients were assessed again after 16 weeks of treatment (16 weeks is considered the standard schedule for cancer treatment according to clinical practice guidelines for ESMO (European Society for Medical Oncology)). Four (4) 1st line patients could not be followed for the additional 8 weeks' treatment due to study protocol formalities, and no further 1st line patients had been analysed at this point.

Setting [3] is: of 8 first-line patients, 16 weeks.
[4] abbreviates: of 13 patients analyzed by August 2017, 8 weeks.
Setting [5] is: of first 12 first-line patients, 8 treatment weeks.

Consider `Nc1nc2c(c(=O)[nH]1)N1CN(c3ccc(C(=O)N[C@@H](CCC(=O)O)C(=O)O)cc3)C[C@H]1CN2` [[6R]-MTHF, [6R]-5,10-methylenetetrahydrofolate], for which, in series [1] (12 first-line patients), the “safety profile compared to other patients in the study or historical control” value was “no signs of an impaired safety profile”. Moreover, the “patients reporting a GI adverse event (nausea, vomiting and/or dehydration) of grade 3 or greater” value in series [1] (37 patients analyzed by September 2017 (2 patients)) was found to be 5.4%. The “toxicity of 5-FU when combined with [6R]-MTHF compared to 5-FU with other folate adjuvants” value in series [1] (ISO-CC-005 results so far) is listed as “reduced”. In series [2] (8 remaining first-line patients, 16 weeks of treatment), the ORR worked out at 63%. Besides, the “ORR (objective response rate)” value was 50% in series [2] (12 first-line patients group) and 54% in series [2] (13 patients (12 first-line + 1 second-line), RECIST 1.1). Besides, the “first-line patients with progressive disease (PD)” value in series [2] (12 first-line patients, 8 weeks) was “none”. For the same compound, the “progression of solid tumors between 8 and 16 weeks after initializing treatment” value in series [2] ([6R]-MTHF and 5-FU, treatment period of at least 8 weeks) was “no patient displayed tumor progression; also recorded: No statistically significant progression”. Further, the “clinical benefit, defined as stable disease or partial response, treated patients” value in series [2] ([6R]-MTHF combined with 5-FU, colorectal cancer) is given as greater than 90%. In addition, the “ORRs achieved with initial 5-FU followed by multiple IV boluses of [6R]-MTHF” value in series [2] (colorectal cancer patients, boluses interspaced by about 10-60 minutes) is 60-80% and 60-85%. In addition, the “patients with partial response (PR)” value in series [2] (group treated with at least 60 mg/m2 [6R]-MTHF, 5 out of 7 patients, 8 weeks) is reported as 71%. In addition, the “patients showing partial response” value in series [2] (setting [3]) is reported as 5 patients; in series [2] (setting [4]), 7 patients. Further, the “patients showing stable disease” value in series [2] (setting [3]) was 3 patients; in series [2] (setting [4]) it was 6 patients; in series [2] (setting [5]) it was 6 patients. The “patients showing partial response (PR)” value in series [2] (setting [5]) is given as 6 patients.
